≈ marks a conversion by molar mass, not a printed value.

The test system of data set [1] is P. aeruginosa PAO1 wt. The data set is described as follows: Antibiotic susceptibility. Format: cell-based, Pseudomonas aeruginosa.
For data set [2], the system named is P. aeruginosa PA14 ΔlecA. In words: Antibiotic susceptibility. Type of data set: cell-based. Conditions: Pseudomonas aeruginosa.
The subject of data set [3] is P. aeruginosa PA14 ΔlecB. In words: Antibiotic susceptibility. Format: cell-based. Conditions: Pseudomonas aeruginosa.
The subject of data set [4] is P. aeruginosa PA14 wt. In words: Antibiotic susceptibility. Format: cell-based, Pseudomonas aeruginosa.
Data set [5] has as its target E. coli gyrase (Escherichia coli, UniProt P0AES4+P0AES6). Format: biochemical.
For data set [6], the system named is E. coli DSM 1116. The data set is described as follows: Antibiotic susceptibility. Format: cell-based. The following applies: Escherichia coli, DSM1116.
The nature of data set [7]: Microsomal stability, human liver microsomes. Type of data set: in vitro ADME. Conditions: one experiment. On the technique in general: Liver microsomes are a subcellular fraction often used to study metabolism.
In data set [8] the test system is HEK293 cells. In words: Cytotoxicity. Conditions: HEK 293 and A549, 100 μM, 48 h incubation. Type of data set: cell-based, human.
Data set [9] deals with Calu-3 HTB-55. In words: Cell permeability, Transwell system. Format: in vitro ADME, human. Conditions: after 4 h, data not shown.
Data set [10] can be described thus: Microsomal stability, mouse liver microsomes. Format: in vitro ADME. The following applies: one experiment.
The subject of data set [11] is E. coli K12 MG1655. In words: Antibiotic susceptibility. Format: cell-based. The following applies: Escherichia coli.
The subject of data set [12] is A549 cells. The data set is described as follows: Cytotoxicity. Type of data set: cell-based, human. The following applies: 48 h, MTT.
Setting [13] is: P. aeruginosa PA14 wt + 1 μg/mL PMBN.
[14] abbreviates: P. aeruginosa PAO1 wt + 1 μg/mL PMBN.

Sequence of E. coli gyrase (P0AES4 whole entry, one chain of several): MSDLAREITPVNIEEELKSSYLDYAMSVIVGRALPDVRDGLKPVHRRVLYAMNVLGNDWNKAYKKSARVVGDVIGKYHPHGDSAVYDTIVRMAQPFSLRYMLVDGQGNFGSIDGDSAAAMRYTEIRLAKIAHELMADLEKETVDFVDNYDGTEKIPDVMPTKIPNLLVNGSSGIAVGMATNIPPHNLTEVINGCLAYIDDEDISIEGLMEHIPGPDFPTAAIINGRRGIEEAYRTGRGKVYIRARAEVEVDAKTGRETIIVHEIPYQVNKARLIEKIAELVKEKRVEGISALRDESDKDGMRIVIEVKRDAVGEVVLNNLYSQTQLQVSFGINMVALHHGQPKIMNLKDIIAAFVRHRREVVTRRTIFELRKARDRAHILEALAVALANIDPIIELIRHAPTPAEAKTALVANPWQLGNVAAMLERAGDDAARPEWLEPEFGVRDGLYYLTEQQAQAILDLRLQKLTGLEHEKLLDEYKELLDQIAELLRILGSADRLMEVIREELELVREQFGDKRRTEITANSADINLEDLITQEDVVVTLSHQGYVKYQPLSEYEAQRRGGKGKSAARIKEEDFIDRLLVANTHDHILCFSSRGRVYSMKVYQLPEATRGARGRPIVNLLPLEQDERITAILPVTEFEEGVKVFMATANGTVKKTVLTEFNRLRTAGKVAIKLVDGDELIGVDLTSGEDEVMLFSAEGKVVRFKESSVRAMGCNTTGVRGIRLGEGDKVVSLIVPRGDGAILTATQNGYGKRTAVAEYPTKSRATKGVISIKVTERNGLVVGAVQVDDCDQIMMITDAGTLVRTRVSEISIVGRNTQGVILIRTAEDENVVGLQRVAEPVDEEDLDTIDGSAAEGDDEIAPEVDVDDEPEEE

In general, MIC refers to the lowest concentration found to suppress growth. Turning to `O=C(O)c1cn(C2CC2)c2cc(N3CCNCC3)c(F)cc2c1=O` [compound 3, ciprofloxacin, reference compound], the minimal inhibitory concentration (MIC) lay within 0.025 to 0.08 µg/mL (≈ 0.0754 to 0.241 µM) in data set [1] (Pseudomonas aeruginosa, PAO1); 0.05 to 0.08 µg/mL (≈ 0.151 to 0.241 µM) in [2]; 0.05 to 0.08 µg/mL (≈ 0.151 to 0.241 µM) in data set [3].

With `C#CCN1CCN(c2cc3c(cc2F)c(=O)c(C(=O)O)cn3C2CC2)CC1` [compound 20, N-Propargyl-ciprofloxacin], the MIC fell in the range of 0.025 to 0.5 µg/mL in data set [4] (setting [13]); 2 to 4 µg/mL (≈ 5.41 to 10.8 µM) in data set [4] (Pseudomonas aeruginosa, PA14); 1 to 2 µg/mL in [1] (setting [14]); 4 to 8 µg/mL (≈ 10.8 to 21.7 µM) in [1] (Pseudomonas aeruginosa, PAO1); 4 to 8 µg/mL (≈ 10.8 to 21.7 µM) in data set [2]. Besides, the “factor of decrease in gyrase inhibitory concentration compared to 3” value in data set [5] amounted to 3.5.

Regarding `O=C(Cn1cc(CN2CCN(c3cc4c(cc3F)c(=O)c(C(=O)O)cn4C3CC3)CC2)nn1)Nc1ccc(S[C@@H]2O[C@H](CO)[C@H](O)[C@H](O)[C@H]2O)cc1` [compound 22], the MIC in data set [6] lay within 2 to 4 µg/mL (≈ 2.7 to 5.41 µM); in [4] (setting [13]), 4 to 16 µg/mL; in data set [1] (setting [14]) it was 4 to 8 µg/mL; in data set [1] (Pseudomonas aeruginosa, PAO1) it was 16 to 32 µg/mL (≈ 21.6 to 43.3 µM); in data set [2], 16 to 32 µg/mL (≈ 21.6 to 43.3 µM); in [3], 16 to 32 µg/mL (≈ 21.6 to 43.3 µM). Also, the “metabolic stability CLMIC HLM” value in data set [7] was 10 μL/min/mg protein. For the same molecule, the “acute cytotoxicity (in words)” value in [8] is listed as “no cytotoxicity”. The “permeation (apical to basal) over Calu-3 HTB-55 cells” value in data set [9] is given as “No detectable permeation”. Besides, the “metabolic stability CLMIC MLM” value in [10] is recorded as 10 μL/min/mg protein.

Take `O=C(Cn1cc(CCN2CCN(c3cc4c(cc3F)c(=O)c(C(=O)O)cn4C3CC3)CC2)nn1)Nc1ccc(S[C@@H]2O[C@H](CO)[C@H](O)[C@H](O)[C@H]2O)cc1` [compound 23]: the MIC in data set [4] (setting [13]) is 16 to 64 µg/mL; in data set [11], 8 to 16 µg/mL (≈ 10.6 to 21.2 µM); in data set [1] (setting [14]), 32 to 64 µg/mL.

Turning to `O=C(CCn1cc(CN2CCN(c3cc4c(cc3F)c(=O)c(C(=O)O)cn4C3CC3)CC2)nn1)Nc1ccc(S[C@@H]2O[C@H](CO)[C@H](O)[C@H](O)[C@H]2O)cc1` [compound 24], the MIC in data set [6] was 2 to 4 µg/mL (≈ 2.65 to 5.31 µM); in [4] (setting [13]) it was 8 to 16 µg/mL; in data set [4] (Pseudomonas aeruginosa, PA14), 8 to 16 µg/mL (≈ 10.6 to 21.2 µM); in [1] (setting [14]), 4 to 8 µg/mL; in data set [2], 8 to 16 µg/mL (≈ 10.6 to 21.2 µM); in [3], 8 to 32 µg/mL (≈ 10.6 to 42.5 µM).

Consider `O=C(CCn1cc(CCN2CCN(c3cc4c(cc3F)c(=O)c(C(=O)O)cn4C3CC3)CC2)nn1)Nc1ccc(S[C@@H]2O[C@H](CO)[C@H](O)[C@H](O)[C@H]2O)cc1` [compound 25], for which the minimal inhibitory concentration (MIC) in data set [4] (setting [13]) and in data set [1] (setting [14]) was 32 to 64 µg/mL each time.

As to `O=C(CCCn1cc(CN2CCN(c3cc4c(cc3F)c(=O)c(C(=O)O)cn4C3CC3)CC2)nn1)Nc1ccc(S[C@@H]2O[C@H](CO)[C@H](O)[C@H](O)[C@H]2O)cc1` [compound 26], the minimum inhibitory concentration (MIC) fell in the range of 2 to 32 µg/mL (≈ 2.6 to 41.7 µM) in data set [6]; 8 to 16 µg/mL (≈ 10.4 to 20.8 µM) in data set [4] (Pseudomonas aeruginosa, PA14); 1 to 2 µg/mL (≈ 1.3 to 2.6 µM) in [11]; 4 to 8 µg/mL in data set [1] (setting [14]); 16 to 32 µg/mL (≈ 20.8 to 41.7 µM) in [1] (Pseudomonas aeruginosa, PAO1); 8 to 16 µg/mL (≈ 10.4 to 20.8 µM) in [2]. The MIC in data set [3] fell in the range of 8 to 16 µg/mL (≈ 10.4 to 20.8 µM).

Consider `O=C(CCCn1cc(CCN2CCN(c3cc4c(cc3F)c(=O)c(C(=O)O)cn4C3CC3)CC2)nn1)Nc1ccc(S[C@@H]2O[C@H](CO)[C@H](O)[C@H](O)[C@H]2O)cc1` [compound 27], for which the MIC in data set [6] lay in the range of 4 to 32 µg/mL (≈ 5.12 to 40.9 µM); in [4] (setting [13]) it was 32 to 64 µg/mL; in data set [1] (setting [14]) it was 32 to 64 µg/mL.

With `O=C(CCCCn1cc(CN2CCN(c3cc4c(cc3F)c(=O)c(C(=O)O)cn4C3CC3)CC2)nn1)Nc1ccc(S[C@@H]2O[C@H](CO)[C@H](O)[C@H](O)[C@H]2O)cc1` [compound 28], the minimum inhibitory concentration (MIC) in data set [6] fell in the range of 4 to 32 µg/mL (≈ 5.12 to 40.9 µM); in data set [4] (setting [13]), 2 to 8 µg/mL; in [11] it was 2 to 4 µg/mL (≈ 2.56 to 5.12 µM); in [1] (setting [14]), 8 to 16 µg/mL; in data set [1] (Pseudomonas aeruginosa, PAO1), 32 to 64 µg/mL (≈ 40.9 to 81.9 µM); in [3], 32 to 64 µg/mL (≈ 40.9 to 81.9 µM).

Take `O=C(CCCCn1cc(CCN2CCN(c3cc4c(cc3F)c(=O)c(C(=O)O)cn4C3CC3)CC2)nn1)Nc1ccc(S[C@@H]2O[C@H](CO)[C@H](O)[C@H](O)[C@H]2O)cc1` [compound 29]: the minimum inhibitory concentration (MIC) lay within 4 to 32 µg/mL (≈ 5.03 to 40.2 µM) in data set [6], 32 to 64 µg/mL in data set [4] (setting [13]) and 32 to 64 µg/mL in [1] (setting [14]).

With `C[C@@H]1O[C@H](CNS(=O)(=O)c2ccc(CCn3cc(CN4CCN(c5cc6c(cc5F)c(=O)c(C(=O)O)cn6C5CC5)CC4)nn3)s2)[C@@H](O)[C@H](O)[C@@H]1O` [compound 30], the results for the minimum inhibitory concentration (MIC) in data set [6], in data set [11] and in data set [1] (setting [14]) were 16 to 32 µg/mL (≈ 21 to 42 µM), 8 to 16 µg/mL (≈ 10.5 to 21 µM) and 32 to 64 µg/mL, respectively. Further, the “metabolic stability CLMIC HLM” value in [7] was 15 μL/min/mg protein. For the same molecule, the “cytotoxicity @ 100 μM A549” value in data set [12] is reported as “–9 ± 15 % inhibition”. The “acute cytotoxicity (in words)” value in data set [8] is given as “no cytotoxicity”. The “permeation (apical to basal) over Calu-3 HTB-55 cells” value in [9] is “No detectable permeation”. Further, the “metabolic stability CLMIC MLM” value in data set [10] stood at 10 μL/min/mg protein.

These data come from article PMC7586336 (Journal of Medicinal Chemistry, 2020).
